Results as given in patent publication US4588526A, “Bronchodilatory azepino(1,2-A)pyrimidine derivatives and acid addition salts thereof and bronchodilating pharmaceutical compositions containing same” (Chinoin Gyogyszer es Vegyeszeti Termekek Gyara Rt, priority 1982, dated 1986).
pIC50: −log10 of the molar value.

What was measured:
[1] = tested on: spasm induced by 5-hydroxy-tryptamine; assay: Konzett test, inhibition of spasm induced by 5-hydroxy-tryptamine; type: in vivo, guinea-pigs; conditions: guinea-pig Konzett test; for ED50: Cavia porcellus, read-out: ID50 spasm inhibition induced by 5-hydroxy-tryptamine
Method: (§1) The activity was determined on the basis of inhibition of spasm induced by three endogenic spasmogenic agents (5-hydroxy-tryptamine histamine, acetyloholine).

[2] = tested on: spasm induced by acetylcholine; assay: Konzett test, inhibition of spasm induced by acetylcholine; type: in vivo, guinea-pigs; conditions: guinea-pig Konzett test; for ED50: Cavia porcellus, read-out: ID50 spasm inhibition induced by acetylcholine
Method: as §1

[3] = tested on: spasm induced by histamine; assay: Konzett test, inhibition of spasm induced by histamine; type: in vivo, guinea-pigs; conditions: guinea-pig Konzett test; for ED50: Cavia porcellus, read-out: ID50 spasm inhibition induced by histamine
Method: as §1

[4] = Drugs of the Future 1981, 6, 362; cited from earlier work
human bronchus = assay: Human bronchus test, inhibition of Carbacol-induced contraction; conditions: contraction by 1 μmole Carbacol, 37 C; for pIC50: amount for 50% inhibition
Source text: As a further Example the activity of the compound of the formula IX is illustrated by human bronchus test. Human bronchus obtained surgically was dipped into an oxygenized physiological solution of 37 C. The contraction is induced by 1 μmole Carbacol.

[5] = tested on: spasm induced by three endogenic spasmogenic agents; assay: Konzett test, duration of activity and comparison with known compounds; type: in vivo, guinea-pigs; conditions: guinea-pig Konzett test; marks all three ID50 values
Method: The activity of the compounds of the invention was examined by Konzett test (Konzett H. and, Rossler R., Arch. Exp. Path. Pharm., 1940, 195 71) using guinea-pigs. The activity was determined on the basis of inhibition of spasm induced by three endogenic spasmogenic agents (5-hydroxy-tryptamine histamine, acetyloholine).

## O=c1c2c(nc3n1CCCCC3)CCC2
[1]
  ED50: 13.8 µmol/kg
[2]
  ED50: 3.7 µmol/kg
[3]
  ED50: 6.5 µmol/kg

## O=c1c2ccccc2nc2n1CCCCC2 [6,7,8,9,10,12-hexahydroazepino[2,1-b]quinazoline-12-one]
[4]
  bronchodilatory activity: displays bronchodilatory activity

## O=c1c2c(nc3n1CCCCC3)CCCC2 [IX]
Human bronchus; Homo sapiens
  pIC50: 5.27
Human bronchus; Homo sapiens, dosage 10^-4 (10^-4.0) mole/1, read-out: spasm reduction
  inhibition at 100 µM: 184%
Human bronchus; Homo sapiens, dosage 10^-4.5 mole/1, read-out: spasm reduction
  inhibition at 31.62 µM: 113%
Human bronchus; Homo sapiens, dosage 10^-5.0 mole/1, read-out: spasm reduction
  inhibition at 10 µM: 48%
Human bronchus; Homo sapiens, dosage 10^-5.5 mole/1, read-out: spasm reduction
  inhibition at 3.162 µM: 23%
Human bronchus; Homo sapiens, dosage 10^-6.0 mole/1, read-out: spasm reduction
  inhibition at 1 µM: 3%

## O=c1c2c(nc3n1CCCCC3)CCCC2 [drawing 9]
[1]
  ID50 spasm inhibition induced by 5-hydroxy-tryptamine: 3.0 µmol/kg
[2]
  ED50: 7.8 µmol/kg
[3]
  ED50: 3.1 µmol/kg
[5]
  duration of activity (footnote x): long-lasting activity

## O=c1c2c(nc3n1CCCCC3)CCCC2 [drawing 10]
[1]
  ID50 spasm inhibition induced by 5-hydroxy-tryptamine: 15.7 µmol/kg
[2]
  ID50 spasm inhibition induced by acetylcholine: 6.3 µmol/kg
[3]
  ID50 spasm inhibition induced by histamine: 5.4 µmol/kg

## O=c1c2ccccc2nc2n1CCCCC2 [drawing 12, reference compound]
[1]
  ED50: 36 µmol/kg
[2]
  ED50: 26.3 µmol/kg
[3]
  ED50: 6.2 µmol/kg

## theophilline anisate [reference compound]
Human bronchus
  pIC50: 3.82
Human bronchus; dosage 10^-3.75 mole/1, 177.8 µM
  spasm reduction: 64%
Human bronchus; dosage 10^-4 (10^-4.0) mole/1, 100 µM
  spasm reduction: 28%
Human bronchus; dosage 10^-4.25 mole/1, 56.23 µM
  spasm reduction: 10%
Human bronchus; dosage 10^-4.5 mole/1, 31.62 µM
  spasm reduction: 5%
[1]
  ID50 spasm inhibition induced by 5-hydroxy-tryptamine: 14.0 µmol/kg
[2]
  ID50 spasm inhibition induced by acetylcholine: 22.0 µmol/kg
[3]
  ID50 spasm inhibition induced by histamine: 14.0 µmol/kg
